# Where two headings read alike, the source gives them in different places.
# Key:
# M. marinum luxCDABE = assay type: cell-based, Mycobacterium marinum; conditions: for M. marinum luxCDABE normalised growth, control=1.00, mean / M. marinum luxCDABE normalised growth, control = 1.00, mean: 10 µM
# [1] = tested on: M. marinum in BV2 microglial cells; assay type: cell-based, Mycobacterium marinum
# D. discoideum GFP-ABD = conditions: for D. discoideum GFP-ABD normalised growth, control=1.00, mean / D. discoideum GFP-ABD normalised growth, control = 1.00, mean: 10 µM
# [2] = tested on: M. marinum in A. castellanii; assay type: cell-based, Mycobacterium marinum
# Mtb H37Rv in THP-1 = tested on: Mtb H37Rv in THP-1; parameters: method as in Sorrentino et al, 2015; conditions: ref Sorrentino et al, 2015, cited from earlier work; for Extracellular MIC90/ Inracellular MIC90: ratio
# Mtb H37Rv = tested on: Mtb H37Rv; parameters: method as in Sorrentino et al, 2015; conditions: ref Sorrentino et al, 2015; cited from earlier work
# M. marinum GFP = assay type: cell-based, Mycobacterium marinum; conditions: 10 µM; antibiotic assay
# [3] = THP1 / Mtb H37Rv infection assay
Compound,Antibiotic assays: M. marinum luxCDABE (M. marinum luxCDABE),Intracellular infection assays: BV2 / M. marinum [1],Growth inhibition / Cytotoxicity assays: D. discoideum GFP-ABD (D. discoideum GFP-ABD),Intracellular infection assays: A. castellanii / M. marinum [2],Growth inhibition / Cytotoxicity assays: BV2 cells (BV2 cells),Intracelullar MIC90 in THP-1 (Mtb H37Rv in THP-1; [3]),"M. marinum luxCDABE normalised growth, control=1.00, mean (M. marinum luxCDABE)",IC50 [1],"BV2 / M. marinum normalised growth, control=1.00, mean ([1]; 10 µM)","D. discoideum GFP-ABD normalised growth, control=1.00, mean (D. discoideum GFP-ABD)","A. castellanii / M. marinum normalised growth, control=1.00, mean ([2]; 10 µM)",Extracellular MIC90/ Inracellular MIC90 (Mtb H37Rv in THP-1),Extracellular MIC90 (Mtb H37Rv),"M. marinum GFP normalised growth, control=1.00, mean (M. marinum GFP)",further results
O=C(c1cnn(C(=O)c2ccco2)c1)c1cc(F)ccc1O [GSK1310678A],0.00,1.17,1.12,0.98,False,,,,,,,,,,
CCOc1ccc(OCc2ccc(C(=O)NNC(=O)c3ccc([N+](=O)[O-])o3)cc2)cc1 [GSK426032A],0.00,1.27,1.02,0.94,False,>50 µM,,,,,,,,,
CN(C)S(=O)(=O)c1ccc(C(=O)Nc2nnc(-c3ccc(Cl)s3)o2)cc1 [GSK991960A],0.15,1.20,0.90,1.06,False,,,,,,,,,,
CCc1c(C)nc(-n2nc(C)cc2NC(=O)c2ccccc2SC)[nH]c1=O [GSK1783710A],0.67,1.11,0.94,1.00,False,>50 µM,,,,,,,,,
c1ccc(-c2nnc(Sc3ccnc(N4CCN(c5ccncc5)CC4)n3)n2CCCN2CCOCC2)nc1 [GSK547543A],0.00,1.22,0.87,0.99,False,,,,,,,,,,
CC(C)(C)C(=O)CC1(O)Oc2ccccc2N=C1C=C(O)C(C)(C)C (centres unmarked) [GSK262906A],1.00,1.68,0.89,1.04,False,,,,,,,,,,
O=C(NC1=NCCS1)c1sc2cc(F)ccc2c1Cl [GSK1107112A],0.10,1.29,0.0367,0.90,False,,,,,,,,,,
O=C(OCc1c(F)cccc1Cl)c1ccc(-n2ncc(Cl)c(Cl)c2=O)cc1 [GSK1826825A],0.13,1.71,1.04,0.95,False,,,,,,,,,,
CCC(Sc1nc2ccccc2o1)C(=O)Nc1nccs1 (centres unmarked) [GSK829969A],0.00,1.56,0.94,1.58,True,,,,,,,,,,
Cc1nnc(NCc2cccc(Cl)c2)c2ccccc12 [GSK1302651A],,,,,,5.55 µM,0.00,4.41 µM,0.87,0.97,1.01,1.06,5.9 µM,0.56,
Cc1nc2ccccn2c1C(=O)NCc1ccc2c(c1)OCO2 [GSK498315A],,,,,,1.85 µM,0.00,5.95 µM,0.47,0.81,0.56,1.57,2.9 µM,0.0644,"M. marinum luxCDABE normalised growth, control = 1.00, mean (M. marinum luxCDABE): 0,00; hit in BV2/M. marinum assay True/False ([1]; 10 µM): TRUE; Hits A. castellanii/M. marinum assay True/False ([2]; 10 µM): FALSE; Intracelullar MIC90 in THP-1 (Mtb H37Rv in THP-1; Mtb H37Rv-infected THP1 cells): 1.85 µM"
Cc1ccc2nc(C(F)(F)F)c(C(=O)NCc3cccs3)n2c1 [GSK1829729A],,,,,,0.61 µM,0.00,0.08 µM,0.48,0.86,0.52,1.47,0.9 µM,0.0432,"M. marinum luxCDABE normalised growth, control = 1.00, mean (M. marinum luxCDABE): 0,00; hit in BV2/M. marinum assay True/False ([1]; 10 µM): TRUE; Hits A. castellanii/M. marinum assay True/False ([2]; 10 µM): FALSE; Intracelullar MIC90 in THP-1 (Mtb H37Rv in THP-1; Mtb H37Rv-infected THP1 cells): 0.61 µM"
COc1ccc(CCNC(=O)c2c(C)nc3ccccn23)cc1 [GSK762874A],,,,,,5.55 µM,0.00,3.64 µM,0.59,1.04,0.70,0.56,3.1 µM,0.08,
O=C(NC(Cc1ccccc1)C(=O)Nc1ccccc1N1CCOCC1)c1cccs1 (centres unmarked) [GSK1055950A],,,,,,1.85 µM,0.00,2.84 µM,0.33,1.07,0.24,4.11,7.6 µM,-0.01,"M. marinum luxCDABE normalised growth, control = 1.00, mean (M. marinum luxCDABE): 0,00; anti-infective properties in microglial cell (BV2) infection assay ([1]; 10 µM): strong anti-infective properties; hit in BV2/M. marinum assay True/False ([1]; 10 µM): TRUE; D. discoideum GFP-ABD normalised growth, control = 1.00, mean (D. discoideum GFP-ABD): 1,07; Hits A. castellanii/M. marinum assay True/False ([2]; 10 µM): TRUE; anti-infective properties in A. castellanii infection assay ([2]; 10 µM): strong anti-infective properties; Intracelullar MIC90 in THP-1 (Mtb H37Rv in THP-1; Mtb H37Rv-infected THP1 cells): 1.85 µM"
C=CCNc1nc(SC)nc2ccccc12 [GSK353071A],,,,,,1.85 µM,0.095,4.77 µM,0.53,0.92,0.77,1.73,3.2 µM,0.09,
Cc1occc1C(=O)Nc1nc(-c2ccccn2)nc2ccsc12 [GSK237561A],,,,,,1.85 µM,0.00,3.9 µM,0.73,-0.0741,1.57,2.16,4 µM,0.31,
COc1ccccc1OCCCCn1c(C2CC2)nc2ccccc21 [GSK994258A],,,,,,5.55 µM,0.00,8.73 µM,0.59,0.31,1.03,0.61,3.4 µM,0.10,
N=C(N)c1ccc(CCN2CCC(c3nc(COCC(F)(F)F)c(-c4ccc(F)cc4)o3)CC2)cc1.O=C(O)C(F)(F)F.O=C(O)C(F)(F)F [GI247341A],0.00,1.21,0.77,1.18,False,,,,,,,,,,
Cc1ccc2nc(C)c(C(=O)NCC(C)C)n2c1 [GSK1829816A],,,,,,16.65 µM,0.08,4.09 µM,0.61,1.03,1.01,0.46,7.7 µM,0.20,
Cc1cccc(-c2nc(Nc3ccncn3)c3sccc3n2)n1 [GSK153890A],0.00,1.17,1.05,1.21,False,,,,,,,,,,
Cc1ccc2nc(C)c(C(=O)NCc3ccco3)n2c1 [GSK1829819A],,,,,,0.61 µM,0.00,3.9 µM,0.37,1.08,0.66,2.13,1.3 µM,0.08,"M. marinum luxCDABE normalised growth, control = 1.00, mean (M. marinum luxCDABE): 0,00; hit in BV2/M. marinum assay True/False ([1]; 10 µM): TRUE; D. discoideum GFP-ABD normalised growth, control = 1.00, mean (D. discoideum GFP-ABD): 1,08; Hits A. castellanii/M. marinum assay True/False ([2]; 10 µM): FALSE; Intracelullar MIC90 in THP-1 (Mtb H37Rv in THP-1; Mtb H37Rv-infected THP1 cells): 0.61 µM"
